Test results reported in patent US20220096602A1, “LIF THERAPY FOR INDUCING INTESTINAL EPITHELIAL CELL REGENERATION” (Rutgers, the State University of New Jersey, priority 2019, published 2022).

Columns and labels:
[1] = molecular target: T1, gp130 (LIF:LIFR:gp130 complex) (Homo sapiens, UniProt P40189+P42702); conditions: after binding to LIFR; cited from earlier work
T1 sequence (P40189 23-918): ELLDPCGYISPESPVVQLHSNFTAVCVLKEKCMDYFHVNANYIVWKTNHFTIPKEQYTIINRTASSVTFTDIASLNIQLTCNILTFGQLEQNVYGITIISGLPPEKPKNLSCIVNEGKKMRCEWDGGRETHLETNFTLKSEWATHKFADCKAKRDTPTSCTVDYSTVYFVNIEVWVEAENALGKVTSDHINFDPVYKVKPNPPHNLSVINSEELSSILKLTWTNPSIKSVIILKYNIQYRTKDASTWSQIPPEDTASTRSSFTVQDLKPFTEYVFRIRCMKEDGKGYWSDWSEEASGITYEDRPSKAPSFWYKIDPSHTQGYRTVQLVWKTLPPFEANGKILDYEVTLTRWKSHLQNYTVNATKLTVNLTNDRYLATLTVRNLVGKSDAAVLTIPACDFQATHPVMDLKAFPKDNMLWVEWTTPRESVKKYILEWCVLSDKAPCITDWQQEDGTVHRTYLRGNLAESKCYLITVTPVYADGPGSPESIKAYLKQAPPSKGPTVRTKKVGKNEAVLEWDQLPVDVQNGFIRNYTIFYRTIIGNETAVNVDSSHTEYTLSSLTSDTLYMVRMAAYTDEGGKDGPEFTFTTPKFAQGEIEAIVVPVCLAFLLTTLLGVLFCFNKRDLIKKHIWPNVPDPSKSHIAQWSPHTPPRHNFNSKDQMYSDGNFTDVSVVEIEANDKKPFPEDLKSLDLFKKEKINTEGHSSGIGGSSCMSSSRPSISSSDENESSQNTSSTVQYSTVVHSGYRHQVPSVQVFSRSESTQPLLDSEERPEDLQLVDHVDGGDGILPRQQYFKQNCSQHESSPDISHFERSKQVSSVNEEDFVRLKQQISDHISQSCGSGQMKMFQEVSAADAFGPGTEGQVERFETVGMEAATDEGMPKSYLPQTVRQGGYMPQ
T1 sequence (P42702 45-1097): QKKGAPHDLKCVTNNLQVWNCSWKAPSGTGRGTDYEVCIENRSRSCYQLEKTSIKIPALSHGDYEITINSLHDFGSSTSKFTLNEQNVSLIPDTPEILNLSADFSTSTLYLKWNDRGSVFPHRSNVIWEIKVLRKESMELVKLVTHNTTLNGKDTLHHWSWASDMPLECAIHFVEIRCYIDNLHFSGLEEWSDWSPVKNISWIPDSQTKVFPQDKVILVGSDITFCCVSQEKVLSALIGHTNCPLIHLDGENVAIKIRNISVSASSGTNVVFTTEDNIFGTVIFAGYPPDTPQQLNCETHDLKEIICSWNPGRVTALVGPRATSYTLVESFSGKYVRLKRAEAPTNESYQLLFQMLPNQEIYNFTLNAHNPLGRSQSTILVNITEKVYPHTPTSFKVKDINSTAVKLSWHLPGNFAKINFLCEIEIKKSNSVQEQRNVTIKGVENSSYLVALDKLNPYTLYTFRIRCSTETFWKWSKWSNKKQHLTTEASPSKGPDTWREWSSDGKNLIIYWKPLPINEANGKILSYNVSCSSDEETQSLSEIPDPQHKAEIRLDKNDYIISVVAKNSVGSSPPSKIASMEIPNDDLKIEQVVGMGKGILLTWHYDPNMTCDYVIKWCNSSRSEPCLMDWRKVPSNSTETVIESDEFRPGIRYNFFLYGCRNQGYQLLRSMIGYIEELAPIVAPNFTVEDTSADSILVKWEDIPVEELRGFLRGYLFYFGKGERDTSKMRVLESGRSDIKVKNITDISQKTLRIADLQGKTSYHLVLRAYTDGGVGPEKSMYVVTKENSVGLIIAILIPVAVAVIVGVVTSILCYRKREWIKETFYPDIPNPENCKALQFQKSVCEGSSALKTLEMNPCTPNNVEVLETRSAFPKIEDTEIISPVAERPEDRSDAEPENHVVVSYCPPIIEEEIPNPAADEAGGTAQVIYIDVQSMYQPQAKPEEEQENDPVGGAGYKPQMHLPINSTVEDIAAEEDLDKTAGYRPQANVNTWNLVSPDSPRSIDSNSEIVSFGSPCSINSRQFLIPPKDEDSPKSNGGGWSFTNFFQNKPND

LIF receptor (LIFR) = molecular target: T2, LIF receptor (LIFR) (Homo sapiens, UniProt P42702); conditions: cited from earlier work
T2 sequence (P42702 45-1097): T1 sequence (P42702 45-1097)

[2] = tested on: β-catenin target genes Axin2, Ascl1, Olfm4 and Lgr5; experiment: Quantitative real-time PCR of β-catenin target genes in organoids; type: cell-based, mouse; conditions: normalized with β-actin
Method: Total RNA from mice small intestine tissues or organoids was prepared by using an RNeasy kit (Qiagen). Quantitative real-time PCR assays were performed as described previously. The expression of genes was normalized with the β-actin gene. Data was obtained from 5 independent biological samples with 3 technical replicates. To investigate whether LIF regulates ISC function through upregulating the AKT signaling, WT and LIF KO organoids were treated with Wortmannin, a PI3K inhibitor that inhibits the PI3K/Akt signaling, and Capivasertib, a specific AKT inhibitor (31, 32). […] Further, we directly examined the effects of Capivasertib and SC79 on β-catenin activity by measuring the mRNA levels of its target genes in WT and LIF KO organoids. […] We further treated organoids formed by WT or LIF KO; Lgr5-GFP mouse crypts with Wortmannin, Capivasertib or SC79. […] We further examined whether blocking GSK3β can improve the growth of LIF KO organoids.

WT intestinal organoids = experiment: Intestinal organoid culture: growth and proliferation of WT organoids; type: cell-based, mouse; conditions: for stem cell number in WT organoids: organoids from WT, Lgr5-GFP mouse crypts; for growth and proliferation of WT organoids: Stattic 2 μM, SB242235 1 μM; for effect on ISC functions in WT organoids: blocking STAT3 or MAPK activity
Method: (§1) Crypt isolation and organoid culture were performed as described previously (Nan Gao's paper, 2015, Development). Crypts were isolated from the mouse small intestine. 150-200 crypts were embedded in growth factor-reduced Matrigel and cultured with mouse ENR organoid culture medium containing 1×B27 (Life Tech Gibco), 1×N2 (Life Tech Gibco), 1 mM N-acetylcysteine (Sigma), 50 ng/ml of EGF (Life Technology), 100 ng/ml of Noggin (R&D System), and 1 μg/ml of R-spondin 1 (R&D system). Recombinant mouse LIF (Millipore), wortmannin (Cell Signaling Technology) and CHIR99021 (Stemgent) were used for organoid treatment.
(§2) The size organoid was evaluated by quantify surface area of horizontal cross section of organoids acquired from multiple random non-overlapping pictures by an Olympus inverted microscope using ImageJ software. The vertical direction of expansion was not included in the calculations. n≥30/group. The percentages of budding organoids were analyzed by light microscopy at different days during organoid culture. n≥100/group.
(§3) IF staining of organoids was performed as previously described (Gao and Kaestner, 2010). In brief, organoids were fixed with 4% paraformaldehyde for 10 min, treated with 0.5% TritonX-100 for 10 min and blocked with 10% goat serum in IF buffer (0.1% BSA, 0.2% Triton X100, 0.05% Tween-20, 0.05% NaN3 in PBS) for 2 hours. Organoids were incubated with anti-Ki67 (Abcam, ab16667, 1:200 dilution) and anti-GFP (Abcam, ab6673, 1:1000 dilution) antibodies overnight at room temperature and then incubated with Alexa Fluor® 555 Goat Anti-Rabbit IgG (H+L) (Invitrogen, 1:800 dilution) and Alexa Fluor® 488 Donkey Anti-Goat IgG (H+L) (Invitrogen, 1:200 dilution), respectively to detect Ki67 and Lgr5-EGFP. Nuclei were stained with 4′, 6-diamidino-2-phenylindole (DAPI; Vector).

[3] = tested on: LIF KO intestinal organoids; experiment: Intestinal organoid culture: growth and proliferation of LIF KO organoids; type: cell-based, mouse; conditions: for stem cell number in LIF KO organoids: organoids from LIF KO, Lgr5-GFP mouse crypts; for growth and proliferation of LIF KO organoids: Stattic 2 μM, SB242235 1 μM
Method: as §1, §2, §3

[4] = patients with advanced cancers; cited from earlier work
[5] = single s.c. dose, up to doses of 4 μg/kg, healthy volunteers; cited from earlier work
intestinal epithelium = experiment: Regeneration of intestinal epithelium after irradiation in inducible LIF-tgflox/+/Cre-ERT2 mice; type: in vivo, mouse; conditions: tamoxifen-induced LIF expression; i.p. 3 days before 12 Gy IR; 72 h after irradiation
Method: Eight-twelve-week-old male and female LIF-tg^flox/+/Cre-ERT2 mice were injected (i.p.) with tamoxifen ([…] body weight for male and […] body weight for female) to induce LIF expression 3 days before irradiation (D-3). Age- and gender-matched LIF-tg^flox/+/Cre-ERT2 mice were injected with corn oil as control on D-3. On D0 mice were subject to 12 Gy-whole-body irradiated. Mouse intestine tissue was collected at 72 h after irradiation (D3). The levels of Ki67 in intestinal epithelium were determined by immunohistochemistry (IHC) staining. n=6 in Tamoxifen treated group, n=4 in control group.

human LIF: Human canonical LIF, accession number P15018, SEQ ID NO: 1
affinity of functional signaling complex with gp130 [1]: picomolar
affinity of binding to LIFR (LIF receptor (LIFR)): low nanomolar

CCOC(=O)C1=C(N)Oc2ccc(Cl)cc2C1C(C#N)C(=O)OCC (stereo not shown) [SC79]
mRNA levels of Axin2, Ascl1, Olfm4 and Lgr5 in LIF KO organoids [2]: greatly increased
mRNA levels of Axin2, Ascl1, Olfm4 and Lgr5 in WT organoids [2]: less pronounced effect
growth and cell proliferation of WT organoids (WT intestinal organoids; SC79 5 μM, compared with LIF KO organoids): less pronounced effect
stem cell number in WT organoids (WT intestinal organoids): less pronounced effect
growth and cell proliferation of LIF KO organoids ([3]; SC79 5 μM): greatly improved
stem cell number in LIF KO organoids [3]: greatly increased

O=[N+]([O-])c1ccc2c(c1)S(=O)(=O)C=C2 [Stattic]
growth and proliferation of WT organoids (WT intestinal organoids): did not have a significant effect
effect on ISC functions in WT organoids (WT intestinal organoids): very limited effect
growth and proliferation of LIF KO organoids [3]: did not have a significant effect

NC1(C(=O)N[C@@H](CCO)c2ccc(Cl)cc2)CCN(c2ncnc3[nH]ccc23)CC1 [Capivasertib]
mRNA levels of Axin2, Ascl1, Olfm4 and Lgr5 in LIF KO organoids [2]: less pronounced effect
mRNA levels of Axin2, Ascl1, Olfm4 and Lgr5 in WT organoids [2]: significantly decreased
growth of WT organoids and cell proliferation (surface area, organoid formation, Ki67+ cells) (WT intestinal organoids; inhibitor 1 μM, WT organoids): greatly inhibited
stem cell number in WT organoids (WT intestinal organoids): greatly decreased
rescue effect of recombinant LIF on the growth of LIF KO organoids ([3]; inhibitor 1 μM with LIF 50 ng/ml): largely abolished
inhibitory effects on organoid growth and cell proliferation in LIF KO organoids ([3]; inhibitor 1 μM, compared with WT organoids): much less pronounced
stem cell number in LIF KO organoids [3]: much less pronounced inhibitory effect

COc1nccc(-c2c(-c3ccc(F)cc3)ncn2C2CCNCC2)n1 [SB242235]
growth and proliferation of WT organoids (WT intestinal organoids): did not have a significant effect
effect on ISC functions in WT organoids (WT intestinal organoids): no obvious effect
growth and proliferation of LIF KO organoids [3]: did not have a significant effect

rhLIF: Emfilermin is the term used for rhLIF produced in Escherichia coli
adverse effects on blood progenitor cells [4]: no adverse effects
hematopoietic recovery after chemotherapy [4]: normal
safety of administration [4]: safely administered
safety and tolerability [5]: safe and well tolerated

Cc1c[nH]c(-c2cnc(NCCNc3ccc(C#N)cn3)nc2-c2ccc(Cl)cc2Cl)n1 [CHIR99021]
growth, cell proliferation and stem cell number of WT organoids (WT intestinal organoids; CHIR99021 3 μM, compared with LIF KO organoids): much less pronounced effect
growth, cell proliferation and stem cell number of LIF KO organoids ([3]; CHIR99021 3 μM): greatly improved

CC/C(=C(\c1ccccc1)c1ccc(OCCN(C)C)cc1)c1ccccc1 [tamoxifen]
intestinal crypt regeneration (viable crypts), higher than controls (intestinal epithelium): ~50%
